Earlier results on 4 compounds are cited in patent US9265822B2 (priority 2009, dated 2016).

SMILES strings stand for the structures.

This data set has as its system 2009 H1N1 swine flu virus.
`NC12CC3CC(CC(C3)C1)C2` [amantadine]: the “resistance or susceptibility of the virus” value (from here on “resistance or susceptibility”) is on record as “resistant”.

Regarding `CCOC(=O)C1=C[C@@H](OC(CC)CC)[C@H](NC(C)=O)[C@@H](N)C1` [oseltamivir], the “resistance or susceptibility” value is on record as “susceptible”.

`CC(N)C12CC3CC(CC(C3)C1)C2` (stereo not shown) [rimantadine]: the “resistance or susceptibility” value is given as “resistant”.

On to `CC(=O)N[C@H]1[C@H]([C@H](O)[C@H](O)CO)OC(C(=O)O)=C[C@@H]1N=C(N)N` [zanamivir], for which the “resistance or susceptibility” value was “susceptible”.
